The results in this text go back to patent US10292980B2, “GAPDH cascade inhibitor compounds and methods of use and treatment of stress induced disorders including mental illness” (THE JOHNS HOPKINS UNIVERSITY, priority 2012, dated 2019).

Experiment [1] has as its system GAPDH-Siah1 binding / nuclear translocation of GAPDH. The experiment in a line: GAPDH nuclear cascade in cardiac myocytes exposed to ET1 (co-immunoprecipitation, immunostaining, fractionation). The experiment is classed as cell-based, rat. Here is the method:
Physiological analysis, histological analysis: Echocardiography and pressure-volume loop studies were performed as described previously (Takimoto et al., Nat. Med., 11, 214-222 (2005)). 10% formalin fixed heart samples were embedded in paraffin, sectioned and stained for myocyte size (WGA staining) and fibrosis (Masson Trichrome staining) as described previously (Zhang et al., J. Am. Coll. Cardiol., 56, 2021-2030 (2010)). Isolated adult cardiac myocyte or rat neonatal cardiac myocyte was fixed with 50% methanol/50% acetone and stained with antibodies against GAPDH (Millipore), sulphonated GAPDH or HA as previously described.
(§1) Rat neonatal cardiac myocyte culture: Rat neonatal cardiac myocytes (RNCM) were isolated from 1-2-day-old Sprague-Dawley rats, and cultured cells stimulated with 0.05 μM Endothelin-1, with or without 1 nM RR compound for 48 hours. Protein synthesis was assessed by [^3H]leucine incorporation. Adenoviral transfection of wild-type GAPDH and K227A mutant GAPDH was performed at 10-30 moi as previously described.
(§2) Protein and RNA analysis: Total RNA was isolated from cells or left ventricular myocardium with Trizol (Molecular Research Center, Inc, Cincinnati, Ohio) and analyzed by real-time polymerase chain reaction (PCR) with TaqMan probes (Applied Biosystems, Foster City, Calif.). Results were normalized to GAPDH or 18S RNA. Cell lysates or nuclear extracts were obtained from cultured myocytes or ventricular tissue, resolved by SDS-polyacrylamide gel electrophoresis, subjected to immunoblotting and imaged by chemiluminescence as previously described.
To test a role for the GAPDH-p300 signaling in heart hypertrophy, the Gq agonist ET1 was used as a trigger. ET1 is reported to elicit oxidative stress by activating NADPD oxidase and stress is known as a central contributor to cardiac hypertrophic response including pressure-load hypertrophy, as in the TAC model. Thus, cardiac myocytes were exposed to ET1 at 0.05 μM for about 48 hours and the effects on GAPDH signaling was examined. […]

Experiment [2] relates to p300 HAT / MEF2. The experiment in a line: p300 acetylation and MEF2 luciferase reporter activity in cardiac myocytes treated with ET1. The experiment is classed as cell-based, rat. How it is done: as §1
(§3) HAT activity assay, MEF2 activity assay, MAO activity assay, GAPDH assay: p300 HAT activity was measured using commercially available kit (Biovision), using immunoprecipitation with p300 antibody (Circulation 118, 934-946 (2008)). MEF2 activity was measured using luciferase reporter assay (Panomics). MAO activity assay was measured using commercially available kit (Peninsula Laboratory). GAPDH activity was measured as previously described in (Nat. Cell Biol., 7, 665-674 (2005)). PUMA mRNA expression was determined by real time RT-PCR using SYBR Green fluorescence on a LightCycler instrument (Roche Applied Science). Expression of the gene of interest was divided by the housekeeping gene glyceraldehyde-3-phosphate dehydrogenase (GAPDH) and presented as fold induction of control.
(§4) Augmented p300 activity reportedly leads to cardiac hypertrophic response via activation of myocyte enhancer factor 2 (MEF2), a master transcriptional factor of mal-adaptive cardiac hypertrophy. Thus, acylation of p300, and activity of MEF2 was tested, together with several outcome measures for hypertrophy response. In cardiac myocytes treated with ET1, augmentation of p300 acylation (reflecting p300 HAT activity), an augmented activity of MEF2, and increases in cell surface area, protein synthesis assayed by ^3H-leucine uptake, and B-type natriuretic peptide (BNP) expression were observed (FIGS. 5D, E).
Background: Reporter assays use an easily measured gene product as a stand-in for the process of interest.

Experiment [3] concerns rat neonatal cardiac myocytes. The experiment in a line: hypertrophy response of rat neonatal cardiac myocytes to ET1. It is filed as cell-based. To be noted: ET1-treated cardiac myocytes, 1 nM. How it is done:
as §1, §2, §4

Experiment [4] concerns DN-DISC1 mice. The experiment in a line: three chamber social novelty test in DN-DISC1 mice. The experiment is classed as in vivo, mouse. From the text: DN-DISC1 mice express a putative dominant-negative C-terminal truncated DISC1 under expression control of the α CaMKII promoter. Homozygous DN-DISC1 mice were created by systematic cross-breeding of heterozygotes followed by interbreeding of homozygotes at the Johns Hopkins School of Medicine. In the current studies only homozygous males were used. At 3 to 6 months of age, mice were transferred to the Neurogenetics and Behavior Center, Johns Hopkins University, for behavioral testing. They were housed three or four to a cage under a 12 hour light/dark cycle (lights on at 7:00 A.M to 7:00 P.M) and weighed between 25 and 35 grams prior to food deprivation.
Measurement of Social Novelty Test: Wt and DN-DISC1 mice were treated with RR compound or control starting at postnatal day 35 (0.25 mg/kg, i.p./day) and continuing throughout the three-chamber social interaction test in adulthood as described in Johnson et al., supra.
The inventors treated DN-DISC1 mice with RR starting at postnatal day 35 (0.25 mg/kg, i.p./day) and continuing throughout the three-chamber social interaction test in adulthood.

Experiment [5] concerns MAO-A/B. The experiment in a line: MAO activity assay in cultured myocytes. It is filed as cell-based, rat. To be noted: concentrations between 0.1 nM and 10^5 nM. How it is done: as §3
A major challenge to identify a compound that selectively blocks the nuclear GAPDH cascade is their potential inhibition of monoamine oxidases (MAOs), which deprenyl originally harbors. Thus, it was examined whether RR inhibits MAO-A/B in cultured myocytes and a dramatic contrast was observed between RR and deprenyl. There was no inhibition of MAOs by RR in a wide range of concentrations between 0.1 nM and 10^5 nM concentrations (FIG. 4C).

Experiment [6] concerns the target T1, GAPDH (Rattus norvegicus, UniProt P04797).
T1 construct: endogenous in cells; host or cells: cultured rat neonatal cardiac cells (from Sprague-Dawley rats)
The experiment in a line: GAPDH glycolytic activity in cultured cardiac cells. It is filed as cell-based. To be noted: cardiac myocytes, 1 nM, 48 hours. How it is done:
FIG. 4A-4D depict a deprenyl derivative compound of the present invention that blocks GAPDH-Siah1 binding. […] FIG. 4B is a graph depicting inhibition of GAPDH-Siah1 binding by the RR compound in vitro. GAPDH was pre-incubated with the RR compound, then GST-Siah1 was added and binding was assessed by GST-agarose pull down followed by western blotting. The graph represents quantification results of the blots from 6 experiments. FIG. 4C is a pair of graphs depicting in vitro MAO activity. FIG. 4D is a bar graph showing glycolytic activity in cultured rat neonatal cardiac cells exposed to 1 nM RR for 48 hours *p<0.05.
as §3, with “control. […]” for “control.”

Setting [7] is: ET1 exposure, co-treatment with RR.
The mark [8] stands for this setting: ET1-treated cardiac myocytes, 1 nM.

T1 sequence (P04797 whole entry): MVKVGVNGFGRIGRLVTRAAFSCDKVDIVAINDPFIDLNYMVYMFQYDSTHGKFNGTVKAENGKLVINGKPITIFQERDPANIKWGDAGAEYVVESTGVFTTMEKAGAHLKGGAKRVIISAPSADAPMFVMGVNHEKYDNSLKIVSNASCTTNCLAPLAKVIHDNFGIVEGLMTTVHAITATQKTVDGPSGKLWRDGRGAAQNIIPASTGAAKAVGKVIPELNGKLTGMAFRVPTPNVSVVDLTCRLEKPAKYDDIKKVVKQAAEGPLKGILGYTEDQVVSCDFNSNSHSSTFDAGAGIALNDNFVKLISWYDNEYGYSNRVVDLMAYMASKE

Regarding `C#CCN1[C@H](C)Cc2ccccc2[C@H]1C` [RR, (1R,3R)-1,3-dimethyl-2-propargyl-1,2,3,4-tetrahydroisoquinoline], the “GAPDH-Siah1 binding augmented by ET1” value in experiment [1] (ET1 0.05 μM about 48 hours, co-administration of RR) is on record as “normalized”. Moreover, in experiment [1] (ET1 0.05 μM, co-treatment 1 nM), the “nuclear translocation of GAPDH in response to ET1” value was “blocked”. In experiment [1] (setting [7]), the “accumulation of sulphonated GAPDH in the nucleus” value is given as “blocked”. In addition, in experiment [2] (setting [8]), the “augmentation of p300 acylation (reflecting p300 HAT activity)” value is “clearly blocked” and the “augmented activity of MEF2” value is given as “clearly blocked”. Also, the “augmentation of p300 acetylation (reflecting p300 HAT activity) in the nucleus” value in experiment [2] (setting [7]) was “blocked”. Moreover, in experiment [3], the PUMA expression entry is recorded as “unchanged”, the “increase in B-type natriuretic peptide (BNP) expression” value was “clearly blocked”, the “increase in cell surface area” value was “clearly blocked” and the “increase in protein synthesis assayed by 3H-leucine uptake” value is recorded as “clearly blocked”. For the same molecule, the “social deficit (impaired social recognition)” value in experiment [4] (0.25 mg/kg, i.p./day from postnatal day 35 through testing in adulthood) is on record as “ameliorated the social deficit”. Further, the “sniffing preference for stranger versus familiar mouse” value in experiment [4] (DISC1 mice treated with RR (n=7), p<0.05) is “preferentially sniffed the stranger mouse over the familiar mouse”. Also, the “inhibition of MAOs” value in experiment [5] is reported as “no inhibition”. The GAPDH glycolytic activity entry in experiment [6] was “did not show any influence”.
